From US7727731B2, “Potent, selective and non toxic c-kit inhibitors” (AB Science, priority 2001, dated 2010)

Assays:
[1] = molecular target: T1, FMA3 (deletion 7aa. juxtamembrane) (Mus musculus, UniProt P05532, DEL577-583); test: Proliferation test, FMA3 cells; format: cell-based; conditions: doses inferior to toxicity level (<10 μM)
T1 construct: endogenous in cells; host or cells: FMA3 mouse mastocytoma cells
Description: (§1) Juxtamembrane Mutations • Ba/F3-KitΔ27 (transfected juxtamembrane mutation—identified at the Laboratory) • Ba/F3-KitG559 (transfected juxtamembrane mutation) • FMA3 (deletion 7aa. juxtamembrane identified in a mouse mastocytome)

SCF activated c-kit wild = molecular target: T2, SCF activated c-kit wild (Mus musculus, UniProt P05532); test: Proliferation test, Ba/F3 Kit cells with SCF; format: cell-based, murine; conditions: doses inferior to toxicity level (<10 μM)
T2 construct: expressed in transfected cells; host or cells: Ba/F3 (murine, IL-3 dependent)
T2 sequence (P05532 25-975 isoform P05532-2 limits assumed): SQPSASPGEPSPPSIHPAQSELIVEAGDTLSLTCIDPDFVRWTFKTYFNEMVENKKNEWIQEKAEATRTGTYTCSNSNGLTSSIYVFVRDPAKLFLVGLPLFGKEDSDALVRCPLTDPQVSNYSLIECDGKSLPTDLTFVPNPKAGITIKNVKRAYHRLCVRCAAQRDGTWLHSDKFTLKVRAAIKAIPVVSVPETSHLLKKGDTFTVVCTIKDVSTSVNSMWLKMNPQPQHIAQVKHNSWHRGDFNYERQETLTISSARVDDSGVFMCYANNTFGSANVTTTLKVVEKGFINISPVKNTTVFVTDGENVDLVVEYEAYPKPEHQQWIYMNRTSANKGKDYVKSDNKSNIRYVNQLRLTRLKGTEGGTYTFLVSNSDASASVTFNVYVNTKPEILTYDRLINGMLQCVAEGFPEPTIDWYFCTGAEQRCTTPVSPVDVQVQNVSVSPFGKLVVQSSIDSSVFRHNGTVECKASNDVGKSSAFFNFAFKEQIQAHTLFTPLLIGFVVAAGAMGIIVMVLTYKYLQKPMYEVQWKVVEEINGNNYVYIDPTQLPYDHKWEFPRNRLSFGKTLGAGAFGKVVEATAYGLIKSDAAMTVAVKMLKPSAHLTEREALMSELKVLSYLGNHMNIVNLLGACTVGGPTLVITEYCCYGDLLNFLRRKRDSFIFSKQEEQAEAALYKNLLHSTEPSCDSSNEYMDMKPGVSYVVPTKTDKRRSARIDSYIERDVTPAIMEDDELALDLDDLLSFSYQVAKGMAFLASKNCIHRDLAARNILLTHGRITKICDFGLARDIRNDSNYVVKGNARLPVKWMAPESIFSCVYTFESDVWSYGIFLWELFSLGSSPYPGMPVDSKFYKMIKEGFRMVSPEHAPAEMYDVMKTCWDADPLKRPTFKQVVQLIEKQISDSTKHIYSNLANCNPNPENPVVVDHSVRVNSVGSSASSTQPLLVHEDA
Description: (§2) First step: cellular proliferation to select molecules which are able to slowdown or stop cellular growth induced by c-kit activation. Here, SCF activated c-kit is used. Then, the effect of these molecules is analyzed by biochemistry techniques (immuno precipitations and western-blots), so that to determine if the inhibitor acts directly on the receptor c-kit or on other proteins, which are mediators of Kit signals. In a second step, a subset of molecules identified is selected in a cellular test on IL-3 dependant cells cultured in presence of IL-3. molecules that are not toxic are identified as potent specific c-kit inhibitors for a use in therapy.
(§3) Two types of cell lines carrying wild or mutated forms of c-kit are available lines derived from mastocytomes and the Ba/F3 cell model (cells depending on IL-3). In the Ba/F3 cells, the expression of c-kit removes the dependence vis-a-vis IL-3. Consequently, cDNA of wild or mutated murine c-kit has been introduced and these cells proliferate either in presence of SCF in case of c-kit wild or in absence of any growth factor in case of activated mutant c-kit.
Preparation of cell lines • Ba/F3-Kit: Ba/F3 cells in which Kit gene, mutated or wild, has been introduced. They proliferate either in presence of Kit ligand (SCF) or in presence of IL-3. […]

c-kit wild = c-kit wild (Mus musculus, UniProt P05532); test: c-kit phosphorylation after immunoprecipitation, c-kit wild; format: cell-based
Sequence of c-kit wild (P05532 25-975 isoform P05532-2 limits assumed): as above
Description: as §2
(§4) The first step of c-kit activation consists of receptor phosphorylation on tyrosine residues. Thus, the phosphorylation state is a measure of receptor activation. By using specific antibodies, c-kit has been isolated by immunoprecipitation and c-kit phosphorylation has been determined using common procedures.

[2] = test system: mutant in a human mast cell leukemia cell line (HMC-1, expressing a juxtamembrane mutation); conditions: cited from earlier work
814 mutant c-kit = test: c-kit phosphorylation after immunoprecipitation, 814 mutant; format: cell-based
Description: as §2, §4

[3] = molecular target: T3, c-kit carrying the 814 mutation (Mus musculus, UniProt P05532, D818V); test: Proliferation test, IC2 D814V cells; format: cell-based, murine; conditions: doses inferior to toxicity level (<10 μM)
T3 construct: expressed in transfected cells; host or cells: IC2 murine mast cell line
T3 sequence (P05532 25-975 isoform P05532-2 D814V limits assumed): as the sequence (P05532 25-975 isoform P05532-2 limits assumed) above, with D790V counted along it
Description: We have tested 37 compounds that are indolinone derivatives in different cell lines and successive screening to select interesting inhibitors. • Method: select the compounds which are effectively c-kit inhibitors (Table 1) Each compound has been tested at a high dose (10 μM) on cell expressing • c-kit carrying the 814 mutation • SCF activated c-kit wild • control cells cultivated in IL-3.
The effect of the 21 inhibitors has been tested at decreasing concentrations (10-10^−1-10^−2 μM) in order to reveal compounds that are able at 1 μM to inhibit proliferation of the IC2 D814V line while preserving response to another stimulus (IL-3, toxicity control).
The nine compounds selected have been tested at narrower doses: between 0.1 and 1 μM. At this stage, the three most efficient compounds at lower doses have been selected (≦0.6 μM): 11, 14 and 35.
(§5) Table set up according to CPM (Counts Per Minutes) percentage obtained after proliferation in absence of inhibitors as 100% (% CPM>80=−−/50<% CPM<80=−/20<% CPM <50=+/5<% CPM<20=+/%-CPM<5=++). All experiments were done in triplicate.

[4] = test system: c-kit carrying one of the juxtamembrane mutations (Δ27); test: Proliferation test, Ba/F3 Δ27 cells; format: cell-based, murine; conditions: doses inferior to toxicity level (<10 μM)
Description: as §3, §1
Cells expressing c-kit carrying one of the juxtamembrane mutations (Δ27) were also used as a control.
as §5

[5] = test system: c-kit bearing juxtamembrane mutations; test: c-kit phosphorylation after immunoprecipitation, juxtamembrane mutants; format: cell-based
Sequence of c-kit bearing juxtamembrane mutations (P05532 592-939 limits assumed, change not shown): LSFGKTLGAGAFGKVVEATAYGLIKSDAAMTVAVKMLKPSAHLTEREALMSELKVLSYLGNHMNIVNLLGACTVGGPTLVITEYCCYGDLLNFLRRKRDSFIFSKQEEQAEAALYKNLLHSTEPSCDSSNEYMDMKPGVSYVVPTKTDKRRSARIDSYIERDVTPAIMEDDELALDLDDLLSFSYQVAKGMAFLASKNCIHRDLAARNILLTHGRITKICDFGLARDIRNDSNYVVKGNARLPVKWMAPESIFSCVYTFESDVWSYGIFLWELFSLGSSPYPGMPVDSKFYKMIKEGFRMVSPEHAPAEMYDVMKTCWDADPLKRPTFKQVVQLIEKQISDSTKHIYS
Description: as §2, §4

T1 sequence (P05532 with tags, fused parts or gaps isoform P05532-2 DEL573-579): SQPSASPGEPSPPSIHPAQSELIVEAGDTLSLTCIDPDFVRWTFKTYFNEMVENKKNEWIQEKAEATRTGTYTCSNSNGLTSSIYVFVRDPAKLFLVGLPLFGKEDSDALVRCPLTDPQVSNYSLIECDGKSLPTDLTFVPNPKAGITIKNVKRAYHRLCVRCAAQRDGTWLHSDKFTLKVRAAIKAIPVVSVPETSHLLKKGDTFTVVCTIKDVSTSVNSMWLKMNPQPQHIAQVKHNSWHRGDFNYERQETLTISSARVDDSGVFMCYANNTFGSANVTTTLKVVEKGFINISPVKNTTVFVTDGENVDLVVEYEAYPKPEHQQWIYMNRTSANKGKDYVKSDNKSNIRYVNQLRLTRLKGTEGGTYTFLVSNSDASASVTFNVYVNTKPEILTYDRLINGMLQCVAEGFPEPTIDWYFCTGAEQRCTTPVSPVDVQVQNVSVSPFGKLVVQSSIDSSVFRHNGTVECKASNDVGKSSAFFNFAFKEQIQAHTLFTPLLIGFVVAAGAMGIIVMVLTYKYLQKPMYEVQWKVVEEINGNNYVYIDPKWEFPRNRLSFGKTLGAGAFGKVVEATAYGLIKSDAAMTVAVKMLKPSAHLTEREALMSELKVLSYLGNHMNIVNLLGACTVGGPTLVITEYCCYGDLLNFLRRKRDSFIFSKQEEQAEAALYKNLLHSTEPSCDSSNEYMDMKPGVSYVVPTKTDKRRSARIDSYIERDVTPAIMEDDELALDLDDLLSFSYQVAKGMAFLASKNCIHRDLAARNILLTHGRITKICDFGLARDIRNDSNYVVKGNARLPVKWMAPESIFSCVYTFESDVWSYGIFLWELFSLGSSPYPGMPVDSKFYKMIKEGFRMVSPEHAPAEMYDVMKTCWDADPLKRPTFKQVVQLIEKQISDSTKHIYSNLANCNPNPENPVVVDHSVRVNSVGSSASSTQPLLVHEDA

STI 571
Effect on proliferation, juxtamembrane mutation FMA3 [1]: inhibits totally the proliferation | Effect on proliferation depending on c-kit wild (SCF activated c-kit wild): inhibits totally the proliferation | Phosphorylation of c-kit wild (c-kit wild): considerably reduces the phosphorylation | Inhibitory effect on kinase activity of HMC-1 mutant compared with ligand-dependent activation of the wild-type receptor [2]: more potent inhibitory effect | Phosphorylation of the 814 mutant c-kit (814 mutant c-kit): is not reduced | Effect on proliferation of cells carrying 814 mutation, IC2 [3]: not the proliferation of cells carrying 814 mutation | Effect on proliferation, juxtamembrane mutation Δ27 [4]: inhibits totally the proliferation | Phosphorylation of c-kit bearing juxtamembrane mutations [5]: considerably reduces the phosphorylation
